This is an account of results in patent US4434171A, “Dibenzazepine derivatives, pharmaceutical compositions containing them, and pharmaceutical methods using them” (Sandoz Ltd., priority 1980, dated 1984).

The structures appear in SMILES notation.

Assay [1] relates to spontaneous motor activity in male mice. The assay is described as follows: inhibition of spontaneous motor activity in male mice (Caviezel and Baillod). Format: in vivo, mouse. As to conditions: p.o. On the procedure: In particular, the compounds of the invention are useful as neuroleptic agents in the treatment of e.g. psychotic disturbances such as schizophrenia, as indicated in standard tests, e.g. by an inhibition of spontaneous motor activity in male mice on p.o. administration of from about 1 to about 50 mg/kg animal body weight of the compounds e.g. in accordance with the principles of Caviezel and Baillod (Pharm. Acta Helv. (1958), 33, 465-484).

A further assay concerns the target T1, 3H-Spiperone receptors (Bos taurus, UniProt P20288).
T1 construct: Fresh calf brain striatal tissue is homogenized; from tissue; host or cells: calf brain striatum membranes
Kind of assay: binding to 3H-Spiperone receptors, modified test from J. Leysen et al. The note with it: calf brain striatal tissue; 0.1 nM 3H-Spiperone; 5×10^-7 M Cinanserin; pH 7.7; 40 min at room temperature; read-out: IC50 in the neuroleptic test from J. Leysen (inhibition of specific Spiperone binding).

T1 sequence (P20288 whole entry): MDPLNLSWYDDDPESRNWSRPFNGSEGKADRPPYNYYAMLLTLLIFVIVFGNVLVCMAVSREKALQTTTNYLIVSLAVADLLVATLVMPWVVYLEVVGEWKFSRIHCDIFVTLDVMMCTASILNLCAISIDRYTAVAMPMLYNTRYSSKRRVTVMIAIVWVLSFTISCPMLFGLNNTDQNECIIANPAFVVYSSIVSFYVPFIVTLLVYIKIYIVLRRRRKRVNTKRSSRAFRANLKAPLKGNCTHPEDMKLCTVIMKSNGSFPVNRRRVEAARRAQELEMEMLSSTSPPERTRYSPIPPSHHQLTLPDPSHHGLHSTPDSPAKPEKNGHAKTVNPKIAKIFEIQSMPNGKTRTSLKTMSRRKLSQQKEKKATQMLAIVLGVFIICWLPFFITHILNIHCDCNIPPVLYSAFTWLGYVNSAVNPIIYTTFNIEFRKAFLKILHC
Experimental for 3H-Spiperone receptors: Fresh calf brain striatal tissue is homogenized in a 25 fold volume of Tris buffer (50 mM, pH 7.7, 120 mM sodium chloride) and centrifuged. The pellets are resuspended in a 22 fold volume of the Tris buffer, incubated for 15 min. at 37° C., recentrifuged and the pellets resuspended in a 300 fold volume of the Tris buffer. […] After incubation for 40 min. at room temperature, the assay mixtures are rapidly filtered through Whatman GF/B filters and washed twice with 5 ml of ice cold Tris buffer and then scintillation-counted.

For orientation: IC50 means the midpoint of a concentration-inhibition curve. As for `CN1CCC(N2Cc3cc(Cl)ccc3Cc3ccccc32)CC1` [Example 1, 8-Chloro-5,6-dihydro-5-(1-methyl-4-piperidinyl)-11H-dibenz[b,e]azepine], the “activity in inhibiting spontaneous motor activity, compared with Clozapine” value in assay [1] is reported as “comparable to that of Clozapine”. The IC50 at 3H-Spiperone receptors was 100 nM.
